Results published in patent US20240238242A1, “EGCG buccal tablet and use thereof” (priority 2023, published 2024).
Where two headings read alike, the source gives them in different places.

Tested on: Novel enterovirus D68 (EV-D68)
Type: cell-based
Conditions: for CPE test per cell well: first experiment; for CPE test (virus replication in cell wells) / CPE test (virus replication in the cell wells): wells 1-10; for average inactivation efficiency against virus: 0.2 mM EGCG, EV-D68 virus, three experiments

## O=C(O[C@@H]1Cc2c(O)cc(O)cc2O[C@@H]1c1cc(O)c(O)c(O)c1)c1cc(O)c(O)c(O)c1 [EGCG, Epigallocatechin gallate]
0.2 mM EGCG + EV-D68 virus, 1 minute, dilution factor 10^1, wells 1-10
  CPE test per cell well: +
0.2 mM EGCG + EV-D68 virus, 1 minute, dilution factor 10^2, wells 1-10
  CPE test per cell well: +
0.2 mM EGCG + EV-D68 virus, 1 minute, dilution factor 10^3, wells 1-10
  CPE test per cell well: +
0.2 mM EGCG + EV-D68 virus, 1 minute, dilution factor 10^4, wells 1-10
  CPE test per cell well: +
0.2 mM EGCG + EV-D68 virus, 1 minute, dilution factor 10^5, wells 1-10
  CPE test per cell well: +
0.2 mM EGCG + EV-D68 virus, 1 minute, dilution factor 10^6, wells 1-10
  CPE test per cell well: − and +
0.2 mM EGCG + EV-D68 virus, 1 minute, dilution factor 10^7, wells 1-10
  CPE test per cell well: − and +
0.2 mM EGCG + EV-D68 virus, 1 minute, dilution factor 10^8, wells 1-10
  CPE test per cell well: −
0.2 mM EGCG + EV-D68 virus, co-incubated 5 minute, third experiment, dilution factor 10^1
  CPE test (virus replication in cell wells): +
0.2 mM EGCG + EV-D68 virus, co-incubated 5 minute, third experiment, dilution factor 10^2
  CPE test (virus replication in cell wells): +
0.2 mM EGCG + EV-D68 virus, co-incubated 5 minute, third experiment, dilution factor 10^3
  CPE test (virus replication in cell wells): +
0.2 mM EGCG + EV-D68 virus, co-incubated 5 minute, third experiment, dilution factor 10^4
  CPE test (virus replication in cell wells): +
0.2 mM EGCG + EV-D68 virus, co-incubated 5 minute, third experiment, dilution factor 10^5
  CPE test (virus replication in cell wells): +
0.2 mM EGCG + EV-D68 virus, co-incubated 5 minute, third experiment, dilution factor 10^6
  CPE test (virus replication in cell wells): + and −
0.2 mM EGCG + EV-D68 virus, co-incubated 5 minute, third experiment, dilution factor 10^7
  CPE test (virus replication in cell wells): −
0.2 mM EGCG + EV-D68 virus, co-incubated 5 minute, third experiment, dilution factor 10^8
  CPE test (virus replication in cell wells): −
0.2 mM EGCG + virus, 1 minute, dilution factor 10^1, second experiment
  CPE test (virus replication in cell wells): +
0.2 mM EGCG + virus, 1 minute, dilution factor 10^1, third experiment
  CPE test (virus replication in cell wells): +
0.2 mM EGCG + virus, 1 minute, dilution factor 10^2, second experiment
  CPE test (virus replication in cell wells): +
0.2 mM EGCG + virus, 1 minute, dilution factor 10^2, third experiment
  CPE test (virus replication in cell wells): +
0.2 mM EGCG + virus, 1 minute, dilution factor 10^3, second experiment
  CPE test (virus replication in cell wells): +
0.2 mM EGCG + virus, 1 minute, dilution factor 10^3, third experiment
  CPE test (virus replication in cell wells): +
0.2 mM EGCG + virus, 1 minute, dilution factor 10^4, second experiment
  CPE test (virus replication in cell wells): +
0.2 mM EGCG + virus, 1 minute, dilution factor 10^4, third experiment
  CPE test (virus replication in cell wells): +
0.2 mM EGCG + virus, 1 minute, dilution factor 10^5, second experiment
  CPE test (virus replication in cell wells): +
0.2 mM EGCG + virus, 1 minute, dilution factor 10^5, third experiment
  CPE test (virus replication in cell wells): +
0.2 mM EGCG + virus, 1 minute, dilution factor 10^6, second experiment
  CPE test (virus replication in cell wells): − and +
0.2 mM EGCG + virus, 1 minute, dilution factor 10^6, third experiment
  CPE test (virus replication in cell wells): − and +
0.2 mM EGCG + virus, 1 minute, dilution factor 10^7, second experiment
  CPE test (virus replication in cell wells): − and +
0.2 mM EGCG + virus, 1 minute, dilution factor 10^7, third experiment
  CPE test (virus replication in cell wells): − and +
0.2 mM EGCG + virus, 1 minute, dilution factor 10^8, second experiment
  CPE test (virus replication in cell wells): −
0.2 mM EGCG + virus, 1 minute, dilution factor 10^8, third experiment
  CPE test (virus replication in cell wells): −
0.2 mM EGCG + virus, co-incubated 5 minute, dilution factor 10^1, first experiment
  CPE test (virus replication in the cell wells): +
0.2 mM EGCG + virus, co-incubated 5 minute, dilution factor 10^1, second experiment
  CPE test (virus replication in the cell wells): +
0.2 mM EGCG + virus, co-incubated 5 minute, dilution factor 10^2, first experiment
  CPE test (virus replication in the cell wells): +
0.2 mM EGCG + virus, co-incubated 5 minute, dilution factor 10^2, second experiment
  CPE test (virus replication in the cell wells): +
0.2 mM EGCG + virus, co-incubated 5 minute, dilution factor 10^3, first experiment
  CPE test (virus replication in the cell wells): +
0.2 mM EGCG + virus, co-incubated 5 minute, dilution factor 10^3, second experiment
  CPE test (virus replication in the cell wells): +
0.2 mM EGCG + virus, co-incubated 5 minute, dilution factor 10^4, first experiment
  CPE test (virus replication in the cell wells): +
0.2 mM EGCG + virus, co-incubated 5 minute, dilution factor 10^4, second experiment
  CPE test (virus replication in the cell wells): +
0.2 mM EGCG + virus, co-incubated 5 minute, dilution factor 10^5, first experiment
  CPE test (virus replication in the cell wells): +
0.2 mM EGCG + virus, co-incubated 5 minute, dilution factor 10^5, second experiment
  CPE test (virus replication in the cell wells): +
0.2 mM EGCG + virus, co-incubated 5 minute, dilution factor 10^6, first experiment
  CPE test (virus replication in the cell wells): − and +
0.2 mM EGCG + virus, co-incubated 5 minute, dilution factor 10^6, second experiment
  CPE test (virus replication in the cell wells): + and −
0.2 mM EGCG + virus, co-incubated 5 minute, dilution factor 10^7, first experiment
  CPE test (virus replication in the cell wells): −
0.2 mM EGCG + virus, co-incubated 5 minute, dilution factor 10^7, second experiment
  CPE test (virus replication in the cell wells): −
0.2 mM EGCG + virus, co-incubated 5 minute, dilution factor 10^8, first experiment
  CPE test (virus replication in the cell wells): −
0.2 mM EGCG + virus, co-incubated 5 minute, dilution factor 10^8, second experiment
  CPE test (virus replication in the cell wells): −
1 minute
  average inactivation efficiency against virus: 12.30%
5 minutes
  average inactivation efficiency against virus: 35.78%
1 mM EGCG + EV-D68 virus, 1 minute, dilution factor 10^1, wells 1-10
  CPE test per cell well: +
1 mM EGCG + EV-D68 virus, 1 minute, dilution factor 10^2, wells 1-10
  CPE test per cell well: +
1 mM EGCG + EV-D68 virus, 1 minute, dilution factor 10^3, wells 1-10
  CPE test per cell well: +
1 mM EGCG + EV-D68 virus, 1 minute, dilution factor 10^4, wells 1-10
  CPE test per cell well: +
1 mM EGCG + EV-D68 virus, 1 minute, dilution factor 10^5, wells 1-10
  CPE test per cell well: +
1 mM EGCG + EV-D68 virus, 1 minute, dilution factor 10^6, wells 1-10
  CPE test per cell well: + and −
1 mM EGCG + EV-D68 virus, 1 minute, dilution factor 10^7, wells 1-10
  CPE test per cell well: −
1 mM EGCG + EV-D68 virus, 1 minute, dilution factor 10^8, wells 1-10
  CPE test per cell well: −
1 mM EGCG + EV-D68 virus, co-incubated 5 minute, third experiment, dilution factor 10^1
  CPE test (virus replication in cell wells): +
1 mM EGCG + EV-D68 virus, co-incubated 5 minute, third experiment, dilution factor 10^2
  CPE test (virus replication in cell wells): +
1 mM EGCG + EV-D68 virus, co-incubated 5 minute, third experiment, dilution factor 10^3
  CPE test (virus replication in cell wells): +
1 mM EGCG + EV-D68 virus, co-incubated 5 minute, third experiment, dilution factor 10^4
  CPE test (virus replication in cell wells): +
1 mM EGCG + EV-D68 virus, co-incubated 5 minute, third experiment, dilution factor 10^5
  CPE test (virus replication in cell wells): +
1 mM EGCG + EV-D68 virus, co-incubated 5 minute, third experiment, dilution factor 10^6
  CPE test (virus replication in cell wells): + and −
1 mM EGCG + EV-D68 virus, co-incubated 5 minute, third experiment, dilution factor 10^7
  CPE test (virus replication in cell wells): −
1 mM EGCG + EV-D68 virus, co-incubated 5 minute, third experiment, dilution factor 10^8
  CPE test (virus replication in cell wells): −
1 mM EGCG + virus, 1 minute, dilution factor 10^1, second experiment
  CPE test (virus replication in cell wells): +
1 mM EGCG + virus, 1 minute, dilution factor 10^1, third experiment
  CPE test (virus replication in cell wells): +
1 mM EGCG + virus, 1 minute, dilution factor 10^2, second experiment
  CPE test (virus replication in cell wells): +
1 mM EGCG + virus, 1 minute, dilution factor 10^2, third experiment
  CPE test (virus replication in cell wells): +
1 mM EGCG + virus, 1 minute, dilution factor 10^3, second experiment
  CPE test (virus replication in cell wells): +
1 mM EGCG + virus, 1 minute, dilution factor 10^3, third experiment
  CPE test (virus replication in cell wells): +
1 mM EGCG + virus, 1 minute, dilution factor 10^4, second experiment
  CPE test (virus replication in cell wells): +
1 mM EGCG + virus, 1 minute, dilution factor 10^4, third experiment
  CPE test (virus replication in cell wells): +
